Experimental findings from article PMC11032351, “Epigenetic modulation through BET bromodomain inhibitors as a novel therapeutic strategy for progranulin-deficient frontotemporal dementia” (Scientific Reports, 2024) are described below.

The assay relates to PGRN protein levels. Briefly: PGRN quantification (Jess) in GRN R493X/+ NPCs. It is filed as cell-based, human. The conditions noted are these: 24 h. Here is the method: PGRN capillary gel electrophoresis experiments were performed using Jess (Bio-Techne) and data were processed and analyzed using Compass for Simple Western software (version 6.0). Runs were conducted using EZ Standard Pack 1 12–230 kDa (Bio-Techne PS-ST01EZ-8), 12–230 kDa pre-filled plates (PS-PP03), 12–230 kDa separation module (SMW004), anti-rabbit HRP detection (DM-001), RePlex (RP-001), and total protein detection modules (DM-TP01, biotin labeling reagent 042-973) according to the manufacturer’s instructions, and with anti-PGRN primary (Abcam ab208777) diluted 1:50 in milk-free antibody dilution buffer (043–524). The following run settings were used for each experiment: separation time: 25 min, separation voltage: 375 V, RePlex purge time: 30 min, biotin labeling time: 30 min, antibody diluent time: 5 min, primary antibody time: 30 min, secondary antibody time: 30 min, total protein HRP time: 30 min. All intensity quantifications are normalized to the total protein assay quantification unless otherwise indicated.
For GRN^R493^X/+ NPCs, cells were grown to confluency in 6-well plates according to the above NPC culturing procedure. To each well was directly added 2 µL of 100 µM panobinostat, […], or DMSO only to produce final in-well concentrations of 100 nM or 1 µM, respectively (0.1% DMSO final concentration). […]

`CCS(=O)(=O)Nc1ccc(Oc2ccc(F)cc2F)c(-c2cn(C)c(=O)c3[nH]ccc23)c1` [mivebresib]: the PGRN protein levels entry is “significantly increased PGRN protein levels”.
